Data taken from patent publication US11459355B2, “Peptides having octopus octopressin activity and use thereof” (NATIONAL MARINE BIODIVERSITY INSTITUTE OF KOREA, priority 2018, dated 2022).

System: Octopus minor
Test: Analysis of bioactivity of octopressin peptide: behavior change of adult Octopus minor after injection
Type: in vivo
Experimental: Peptides satisfying the octopressin amino acid sequence and modification predicted in Example 4 were ordered and purchased from a peptide synthesizing company and used. A dried peptide powder was dissolved in tertiary distilled water to a concentration of 10 mg/ml, diluted 100 times of artificial seawater filtered through a 0.20 μm filter to prepare an injection solution. A disposable syringe and a 26 gauge needle were used to poke at a 1 cm deep, and the injection solution was administered in the center between the body of the head of the adult Octopus minor. The injection volume was 100 microgram/kg by weight of the Octopus minor. As a control group, Octopus minor without injection (before injection), Octopus minor injected with filtered artificial seawater only, and Octopus minor injected with octopus-derived octopressin were used. […] In addition, these behavior changes began to appear 1 to 5 minutes after injection and lasted for 10 to 20 minutes, and the effect peaked between 5 to 10 minutes after injection and lasted for 10 to 20 minutes. […] Here, the used Octopus minor were discarded without reuse.

Sequence: CFWTNCPVG (Octopressin_active peptide) [octopressin-activated peptide]
- brooding-like behavior after injection (FIG. 6B) (Octopus minor injected with octopressin): behaviors similar to the brooding behaviors
- behavior change after injection (repetitive bending and stretching of arms, social behaviors) (adult Octopus minor, injection between body and head, 100 microgram/kg, total of 12 Octopus minors, regardless of sex): had bioactivity
